Results as given in patent publication US11312676B2, “Small molecule stimulators of steroid receptor coactivator proteins and their use in the treatment of cancer” (BAYLOR COLLEGE OF MEDICINE, priority 2014, dated 2022).
One block for each compound: values may come before it. Peptide text beside a SMILES is read from it. * marks the point of attachment. Cbz = O=C(OCc1ccccc1)*; CH2F = FC*

Legend:
Type in all cases: cell-based
SRC-3 = biological target: T1, SRC-3 (Homo sapiens, UniProt Q9Y6Q9); assay: Gal4 luciferase reporter assay (pBIND-SRC-3 + pG5-LUC) in HeLa cells; conditions: for effect on activation of SRC-3 by MCB-613: co-treatment with MCB-613, 24 hours; for intrinsic transcriptional activity of SRC-3: 24 hours, additional paraptosis agents
T1 construct: expressed in transfected cells; host or cells: HeLa
Method: (§1) The constructs expressing the Gal4 responsive luciferase reporter (pG5-luc), Gal4 DBD fusion with SRC-1, […] (pBIND-SRC-1/-2/-3), MMP2 or MMP13 promoter driven luciferase reporter (MMP2-luc, MMP13-luc) were prepared. Twenty-four hours before transfection, HeLa cells were plated in 24-well dishes. The indicated expression plasmids were transfected into cells using Lipofectamine 2000 according to the manufacturer's instructions.
(§2) After various compound treatments, cells were lysed in luciferase lysis buffer and assayed for luciferase activity using the ONE-Glo luciferase assay system (Promega, Madison, Wis.). All luciferase activities were normalized to protein concentration determined by Bradford assay (Bio-Rad, Hercules, Calif.).
HeLa cells were transfected with a Gal4 responsive luciferase reporter (pG5-luc) and a construct encoding SRC-1, SRC-2 or SRC-3 fused with the DNA binding domain of Gal4 (pBIND-SRC-1, pBIND-SRC-2 or pBIND-SRC-3) were treated with the indicated compounds.

SRC-2 = biological target: T2, SRC-2 (Homo sapiens, UniProt Q15596); assay: Gal4 luciferase reporter assay (pBIND-SRC-2 + pG5-LUC) in HeLa cells; conditions: for intrinsic transcriptional activity of SRC-2: 24 hours, additional paraptosis agents
T2 construct: expressed in transfected cells; host or cells: HeLa
Method: as §1, §2

SRC-1 = SRC-1 (Homo sapiens, UniProt Q15788); assay: Gal4 luciferase reporter assay (pBIND-SRC-1 + pG5-LUC) in HeLa cells; set-up: expressed in transfected cells; host or cells: HeLa; conditions: for intrinsic transcriptional activity of SRC-1: 24 hours, additional paraptosis agents
Method: as §1, §2

HeLa cells [1] = assay: Cytoplasmic vacuolization of cancer cells; conditions: HeLa cells, co-treatment with MCB-613, 24 hours
HeLa cells [2] = assay: MTS cell viability assay, HeLa cells; conditions: HeLa cells, co-treatment with MCB-613, 24 hours
[3] = tested on: TM4 Sertoli cells and GBM cancer cells; assay: CellTiter-Glo viability, TM4 Sertoli cells versus GBM cell lines R0315 and 4687; conditions: 72 hours, GBM R0315 and 4687 vs TM4 Sertoli
Method: The effects of SYC-851 (Compound 4-8), SYC-852 (Compound 5-1), SYC-853 (Compound 5-4), and SYC-855 (Compound 7-8) on TM4 Sertoli cells and on GBM cancer cells were determined. Cells were plated as monolayer cultures and treated 24 hours later with the indicated concentration of compounds. After 72 hours, cells were harvested and assayed for viability using a CellTiter-Glo assay […]. The results for TM4 Setoli cells and for pediatric glioblastoma multiforme cell lines R0315 and 4687 and are shown in FIGS. 18A, 18B, and 18C, respectively.

HeLa cells [4] = assay: Western blot of stress, UPR, autophagy and apoptosis markers in HeLa cells; conditions: co-treatment with MCB-613, 24 hours
Method: For Western blotting, cells were harvested and lysed in lysis buffer (50 mM Tris, pH 8.0, 150 mM NaCl, 10% glycerol, 0.5% NP40, protease and phosphatase inhibitor) and then centrifuged for 15 min at 14000 rpm at 4° C. After total cellular protein concentration was determined by Bradford analysis (Bio-Rad, Hercules, Calif.), protein lysates were loaded onto and resolved by sodium dodecyl sulfate-polyacrylamide gel electrophoresis (SDS-PAGE) and transferred to PVDF membranes (BioRad) which were blocked and incubated with indicated antibodies. For immunoprecipitation, 10 μg of plasmid encoding FLAG-SRC-3 was transfected into HeLa cells with 90% confluence in one 10 cm plate with lipofectamine 2000 (Invitrogen). Twenty-four hours after transfection, the cells were treated with MCB-613 for one hour and lysed with lysis buffer (25 mM Tris-Cl pH7.5, 150 mM NaCl, 5% glycerol, 1 mM EDTA, 1% Triton X-100, protease and phosphatase inhibitor) at 4° C. After a 30-second sonication, the lysate was cleared by centrifugation at 14000 rpm at 4° C. for 15 minutes and was incubated with anti-Flag-M2 agarose affinity gel (Sigma) for four hours. The agarose gel was washed four times with washing buffer (25 mM Tris pH 8.0, 150 mM NaCl, 1 mM EDTA, 1% Triton X-100) and resuspended with SDS loading buffer for Western blotting.

[5] = co-treatment with MCB-613, 24 hours

Sequence of SRC-1 (Q15788 whole entry, the tested form may be a part): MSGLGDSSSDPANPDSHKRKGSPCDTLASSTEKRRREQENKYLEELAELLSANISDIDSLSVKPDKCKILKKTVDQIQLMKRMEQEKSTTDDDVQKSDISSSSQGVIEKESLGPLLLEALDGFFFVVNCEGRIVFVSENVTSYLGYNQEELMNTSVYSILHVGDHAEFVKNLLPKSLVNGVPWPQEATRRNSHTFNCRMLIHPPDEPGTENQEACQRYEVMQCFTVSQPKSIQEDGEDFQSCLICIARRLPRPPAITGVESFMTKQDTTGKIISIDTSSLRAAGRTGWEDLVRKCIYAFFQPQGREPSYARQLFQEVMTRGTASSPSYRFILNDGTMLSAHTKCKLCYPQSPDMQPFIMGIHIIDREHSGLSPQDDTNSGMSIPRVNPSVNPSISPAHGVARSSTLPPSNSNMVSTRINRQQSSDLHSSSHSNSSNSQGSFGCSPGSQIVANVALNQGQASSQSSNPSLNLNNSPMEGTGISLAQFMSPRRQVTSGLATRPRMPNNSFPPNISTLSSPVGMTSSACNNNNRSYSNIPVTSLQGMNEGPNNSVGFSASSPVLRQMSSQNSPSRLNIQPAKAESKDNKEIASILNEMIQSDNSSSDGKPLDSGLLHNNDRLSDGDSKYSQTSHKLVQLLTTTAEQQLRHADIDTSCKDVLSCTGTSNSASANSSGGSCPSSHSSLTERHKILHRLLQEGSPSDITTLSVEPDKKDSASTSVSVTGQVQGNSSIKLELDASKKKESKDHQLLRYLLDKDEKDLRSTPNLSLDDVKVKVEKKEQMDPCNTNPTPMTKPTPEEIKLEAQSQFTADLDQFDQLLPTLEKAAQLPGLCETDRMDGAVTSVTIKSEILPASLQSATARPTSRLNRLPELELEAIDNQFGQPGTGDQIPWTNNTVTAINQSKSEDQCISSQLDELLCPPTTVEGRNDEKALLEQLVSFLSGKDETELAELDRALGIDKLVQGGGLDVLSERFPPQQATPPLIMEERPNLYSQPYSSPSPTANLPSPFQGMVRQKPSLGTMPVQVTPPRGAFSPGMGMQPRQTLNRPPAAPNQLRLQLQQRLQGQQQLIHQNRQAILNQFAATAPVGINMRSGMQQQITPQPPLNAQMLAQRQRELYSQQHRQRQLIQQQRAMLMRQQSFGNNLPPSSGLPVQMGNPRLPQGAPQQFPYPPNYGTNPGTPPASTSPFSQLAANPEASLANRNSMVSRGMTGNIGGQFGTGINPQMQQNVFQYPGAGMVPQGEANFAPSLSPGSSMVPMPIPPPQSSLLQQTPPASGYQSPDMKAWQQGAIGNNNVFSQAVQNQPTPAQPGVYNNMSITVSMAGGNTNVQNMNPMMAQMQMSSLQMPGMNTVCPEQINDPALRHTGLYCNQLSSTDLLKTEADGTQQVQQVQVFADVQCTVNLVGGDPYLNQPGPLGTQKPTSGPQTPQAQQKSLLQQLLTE
T2 sequence (Q15596 whole entry, the tested form may be a part): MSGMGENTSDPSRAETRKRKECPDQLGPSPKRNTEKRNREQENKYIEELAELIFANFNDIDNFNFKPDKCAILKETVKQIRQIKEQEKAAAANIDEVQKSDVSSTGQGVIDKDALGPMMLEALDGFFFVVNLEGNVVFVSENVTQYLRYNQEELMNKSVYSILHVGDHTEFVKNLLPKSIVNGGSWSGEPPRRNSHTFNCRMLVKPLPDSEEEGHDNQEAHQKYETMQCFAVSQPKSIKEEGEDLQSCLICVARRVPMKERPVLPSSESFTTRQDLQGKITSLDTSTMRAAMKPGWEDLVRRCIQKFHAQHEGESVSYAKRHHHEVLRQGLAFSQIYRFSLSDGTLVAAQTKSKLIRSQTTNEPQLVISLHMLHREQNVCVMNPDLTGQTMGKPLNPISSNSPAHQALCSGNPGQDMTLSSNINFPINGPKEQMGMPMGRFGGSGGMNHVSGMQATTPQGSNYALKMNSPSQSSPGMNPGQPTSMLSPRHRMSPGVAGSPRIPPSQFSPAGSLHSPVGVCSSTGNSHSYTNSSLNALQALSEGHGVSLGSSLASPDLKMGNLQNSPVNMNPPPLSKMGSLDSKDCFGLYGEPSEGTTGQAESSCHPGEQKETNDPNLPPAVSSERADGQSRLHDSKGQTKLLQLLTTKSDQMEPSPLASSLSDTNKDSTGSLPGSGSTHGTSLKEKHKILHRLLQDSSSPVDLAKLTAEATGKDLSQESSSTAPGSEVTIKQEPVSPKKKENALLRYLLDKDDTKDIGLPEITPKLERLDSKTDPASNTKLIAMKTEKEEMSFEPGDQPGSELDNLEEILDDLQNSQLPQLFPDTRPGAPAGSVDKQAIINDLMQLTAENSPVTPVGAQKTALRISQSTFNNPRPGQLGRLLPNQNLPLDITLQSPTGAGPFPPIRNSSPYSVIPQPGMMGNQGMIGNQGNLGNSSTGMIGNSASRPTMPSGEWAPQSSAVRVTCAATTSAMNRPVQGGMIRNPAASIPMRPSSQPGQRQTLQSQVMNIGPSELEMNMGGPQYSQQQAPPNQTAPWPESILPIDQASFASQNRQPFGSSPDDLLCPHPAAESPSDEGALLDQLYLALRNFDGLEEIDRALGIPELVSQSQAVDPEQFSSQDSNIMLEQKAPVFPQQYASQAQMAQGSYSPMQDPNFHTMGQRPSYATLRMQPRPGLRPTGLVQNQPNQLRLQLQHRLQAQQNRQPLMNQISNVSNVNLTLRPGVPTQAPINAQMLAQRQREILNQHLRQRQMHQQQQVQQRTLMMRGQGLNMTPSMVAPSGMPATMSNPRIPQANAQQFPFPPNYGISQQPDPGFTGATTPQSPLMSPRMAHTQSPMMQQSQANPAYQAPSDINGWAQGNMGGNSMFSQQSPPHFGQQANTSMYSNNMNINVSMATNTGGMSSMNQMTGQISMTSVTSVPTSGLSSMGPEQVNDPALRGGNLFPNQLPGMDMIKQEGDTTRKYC
T1 sequence (Q9Y6Q9 whole entry, the tested form may be a part): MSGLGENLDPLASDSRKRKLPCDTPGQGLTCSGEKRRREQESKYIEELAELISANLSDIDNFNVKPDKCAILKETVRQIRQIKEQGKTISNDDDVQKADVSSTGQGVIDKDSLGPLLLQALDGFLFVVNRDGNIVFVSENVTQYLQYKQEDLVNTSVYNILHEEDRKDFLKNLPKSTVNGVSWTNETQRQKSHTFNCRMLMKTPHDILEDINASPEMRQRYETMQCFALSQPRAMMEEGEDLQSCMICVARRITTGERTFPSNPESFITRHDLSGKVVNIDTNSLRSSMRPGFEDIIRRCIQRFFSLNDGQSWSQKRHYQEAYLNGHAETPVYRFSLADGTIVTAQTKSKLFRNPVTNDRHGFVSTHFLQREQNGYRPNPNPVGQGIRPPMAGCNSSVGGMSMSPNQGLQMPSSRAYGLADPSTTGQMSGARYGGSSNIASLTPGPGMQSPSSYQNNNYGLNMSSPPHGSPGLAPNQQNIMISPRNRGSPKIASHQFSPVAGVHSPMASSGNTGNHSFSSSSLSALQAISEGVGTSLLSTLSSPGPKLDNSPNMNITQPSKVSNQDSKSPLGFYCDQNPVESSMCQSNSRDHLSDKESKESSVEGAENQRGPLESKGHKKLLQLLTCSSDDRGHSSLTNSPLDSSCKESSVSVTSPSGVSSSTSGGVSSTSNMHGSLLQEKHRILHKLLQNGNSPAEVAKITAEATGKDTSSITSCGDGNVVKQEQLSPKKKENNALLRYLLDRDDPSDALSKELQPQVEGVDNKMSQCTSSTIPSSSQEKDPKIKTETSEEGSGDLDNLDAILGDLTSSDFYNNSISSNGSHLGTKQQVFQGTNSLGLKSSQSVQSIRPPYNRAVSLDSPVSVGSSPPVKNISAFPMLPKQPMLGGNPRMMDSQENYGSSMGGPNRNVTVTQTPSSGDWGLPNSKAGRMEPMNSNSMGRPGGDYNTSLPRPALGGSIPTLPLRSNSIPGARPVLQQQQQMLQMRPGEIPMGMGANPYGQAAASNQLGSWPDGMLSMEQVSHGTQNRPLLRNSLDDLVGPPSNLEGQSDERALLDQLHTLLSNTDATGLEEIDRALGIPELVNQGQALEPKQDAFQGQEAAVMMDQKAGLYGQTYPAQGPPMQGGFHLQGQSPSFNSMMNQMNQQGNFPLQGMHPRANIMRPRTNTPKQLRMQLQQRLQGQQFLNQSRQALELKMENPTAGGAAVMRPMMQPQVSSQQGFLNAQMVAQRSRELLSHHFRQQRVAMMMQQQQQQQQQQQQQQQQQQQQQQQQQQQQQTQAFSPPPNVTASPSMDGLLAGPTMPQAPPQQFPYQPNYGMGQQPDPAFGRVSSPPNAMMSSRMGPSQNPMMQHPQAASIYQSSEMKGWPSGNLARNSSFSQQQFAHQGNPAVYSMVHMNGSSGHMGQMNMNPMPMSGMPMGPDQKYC

intrinsic transcriptional activity of SRC-2 (SRC-2): robustly enhance
intrinsic transcriptional activity of SRC-3 (SRC-3): robustly enhance
intrinsic transcriptional activity of SRC-1 (SRC-1): robustly enhance
SMILES: CCCCC/C=C/C=C1/C(=O)C=C[C@@H]1C/C=C\CCCC(=O)O [Compound 15d-PGJ2, 15-deoxy-Δ^12,14-prostaglandin J2]

effect on activation of SRC-2 by MCB-613 (SRC-2; [5]): abrogate
effect on activation of SRC-3 by MCB-613 (SRC-3): abrogate
effect on activation of SRC-1 by MCB-613 (SRC-1; [5]): abrogate
SMILES: CC(=O)N[C@@H](CS)C(=O)O [N-Acetyl cysteine]
effect on vacuolization induced by MCB-613 (HeLa cells [1]): blocked
effect on cell death caused by MCB-613 (HeLa cells [2]): protected cells from MCB-613 mediated cytotoxicity

effect on activation of SRC-3 by MCB-613 (SRC-3): significantly inhibited
SMILES: CO[C@@H](C(=O)N1Cc2n[nH]c(NC(=O)c3ccc(N4CCN(C)CC4)cc3)c2C1)c1ccccc1 [PHA 739358]

SRC-3 intrinsic transcriptional activity (luciferase) (SRC-3; Example 6): high intrinsic transcriptional activity
SMILES: CC(C)N1CC(=Cc2cccnc2)C(=O)C(=Cc2cccnc2)C1 [SYC-855]
toxicity to cancer cells compared with non-cancer cells [3]: more toxicity to cancer cells than to non-cancer cells

effect on activation of SRC-3 by MCB-613 (SRC-3): did not inhibit
SMILES: CCN(CC)CCCC(C)Nc1ccnc2cc(Cl)ccc12 (stereo not shown) [chloroquine]

intrinsic transcriptional activity of SRC-2 (SRC-2): robustly enhance
intrinsic transcriptional activity of SRC-3 (SRC-3): robustly enhance
intrinsic transcriptional activity of SRC-1 (SRC-1): robustly enhance
SMILES: COc1cc(/C=C/C(=O)CC(=O)/C=C/c2ccc(O)c(OC)c2)ccc1O [curcumin]

effect on activation of SRC-3 by MCB-613 (SRC-3): did not inhibit
SMILES: COC(=O)C[C@H](NC(=O)[C@H](C)NC(=O)[C@@H](NC(=O)OCc1ccccc1)C(C)C)C(=O)CF [z-VAD-fmk] (Cbz-Val-Ala-Asp(OMe)-CH2F)

More lines, now with the values behind:

SMILES: Cn1cnc(N)c2ncnc1-2 [Compound 3-MA, 3-methyladenine]
effect on activation of SRC-3 by MCB-613 (SRC-3): did not inhibit

SMILES: CC(C)C[C@@H](C=O)NC(=O)[C@H](CC(C)C)NC(=O)[C@H](CC(C)C)NC(=O)OCc1ccccc1 [MG132] (Cbz-Leu-Leu-Leu-aldehyde)
intrinsic transcriptional activity of SRC-2 (SRC-2): robustly enhance
intrinsic transcriptional activity of SRC-3 (SRC-3): robustly enhance
intrinsic transcriptional activity of SRC-1 (SRC-1): robustly enhance

SMILES: O=C1C(=Cc2cccnc2)COCC1=Cc1cccnc1 [SYC-851]
toxicity to cancer cells compared with non-cancer cells [3]: more toxicity to cancer cells than to non-cancer cells

SMILES: C[C@]12CC[C@H](O)C[C@H]1CC[C@@H]1[C@@H]2CC[C@]2(C)[C@@H](c3ccc(=O)oc3)CC[C@]12O [bufalin, reference compound]
effect on vacuolization induced by MCB-613 (HeLa cells [1]): effectively inhibited
effect on induction of ER stress (ATF4) by MCB-613 (HeLa cells [4]): completely reversed

SMILES: C[C@@H]1C[C@@H]([C@H](O)CC2CC(=O)NC(=O)C2)C(=O)[C@@H](C)C1 [cycloheximide]
effect on vacuolization induced by MCB-613 (HeLa cells [1]): blocked
effect on cell death caused by MCB-613 (HeLa cells [2]): protected cells from MCB-613 mediated cytotoxicity
